test system: colon carcinoma cell HCT116; assay: Tumor cell proliferation inhibitory activity test in vitro (MTT); type: cell-based, human; details: Homo sapiens, HCT-116, 72 hours, read-out: IC50 of compounds for tumor cells, Activity, HCT116
Description: (§1) Human non-small cell lung cancer cell line NCI-H460, human small cell lung cancer cell line NCI-H446, human hepatocellular carcinoma cell strain HepG2, human colon carcinoma cell strain HCT116, human prostate cancer PC-3, human melanoma A375, colon carcinoma cell HCT-8, breast cancer cell MCF-7, ovarian cancer cell A2780s, drug-resistant ovarian cancer cell A2780/T, drug-resistant colon cancer cell HCT-8/T and doxorubicin-resistant breast cancer cell MCF-7/ADR are obtained from American Type Culture Collection (ATCC) and are cultured and preserved by the cell bank of State Key Laboratory of Biotherapy of Sichuan University. Above tumor cells are routinely cultured in DMEM culture medium containing 10% fetal bovine serum, 100 U·mL-1 penicillin and 100 mg·L−1 streptomycin, and in an incubator at 37° C. and with saturated humidity and 5% CO2 concentration.
(§2) Fill diluted cell suspension in the 96-well plate with 1000-10000 cells per well and incubate it in CO2 incubator overnight.
(§3) Replace with new medium containing various concentrations of compounds to be tested for the test group and replace with fresh medium with equal volume for the control group, each group is arranged with 5 parallel wells and incubated in an incubator at 37° C. and with 5% CO2 concentration.
(§4) Discard the supernatant after 72 hours, add 200 μL freshly prepared serum-free medium containing 0.2 mg/mL MTT into each well, continue to incubate at 37° C. for 1-4 hours, then stop incubation, carefully remove the culture supernatant in the wells and add 200 uL DMSO (dimethyl sulfoxide), oscillate with a miniature ultrasonic oscillator for 15-20 minutes to make the crystal fully dissolved and mixed. Determine OD values using a microplate reader at 570 nm with a reference wavelength of 450 nm.
(§5) Draw curves based on the growth inhibition rate for tumor cells of the same sample with different concentrations to get dose-response curve, so as to calculate IC50. Repeat each test for 3 times, measure IC50 (μM) or nanomolor concentration (nM) of compounds in different tumor cells.

First: COc1ccc(N(C)c2cc(=O)oc3ccccc23)cc1 [COUM-43, 4-(N-methyl-N-(4-methoxybenzene)-amino) coumarin]
Second: O=c1cc(-c2ccc(-c3ccccc3)o2)c2ccccc2o1 [COUM-19, 4-(5-phenylfuran-2-yl)-coumarin]
The IC50 of the first is lower: 0.01 to 0.1 µM for the first, greater than 5 µM for the second. The first is the more potent here.

`O=c1cc(-c2ccc(-c3cccc(Cl)c3)o2)c2ccccc2o1` [COUM-22, 4-(5-(3-chlorobenzene)furan-2-yl)-coumarin] and `COc1ccc2c(-c3ccc(-c4cccc(Cl)c4)s3)cc(=O)oc2c1` [COUM-35, 4-(5-(3-chlorobenzene)thiophene-2-yl)-7-methoxyl-coumarin] cannot be ordered by IC50: greater than 5 µM for the first, greater than 5 µM for the second.

`O=c1cc(-c2ccc(-c3ccc4c(c3)OCO4)s2)c2ccccc2o1` [COUM-31, 4-(5-(3,4-(methylenedioxy)benzene)thiophene-2-yl)-coumarin] and `COc1ccc2c(-c3ccc(-c4ccc5c(c4)OCO5)o3)cc(=O)oc2c1` [COUM-25, 4-(5-(3,4-(methylenedioxy)benzene)furan-2-yl)-7-methoxyl-coumarin] cannot be ordered by IC50: greater than 5 µM for the first, greater than 5 µM for the second.

test system: non-small cell lung cancer cell line NCI-H460; assay: as above; type: cell-based, human; details: Homo sapiens, NCI-H460, 72 hours, read-out: IC50 of compounds for tumor cells, Activity, H460
Description: as §1, §2, §3, §4, §5

First: COc1ccc(N(C)c2cc(=O)oc3ccccc23)cc1 [COUM-43, 4-(N-methyl-N-(4-methoxybenzene)-amino) coumarin]
Second: O=c1cc(-c2ccc(-c3ccccc3)o2)c2ccccc2o1 [COUM-19, 4-(5-phenylfuran-2-yl)-coumarin]
The IC50 of the first is lower: 0.01 to 0.1 µM for the first, greater than 5 µM for the second. The first is the more potent here.

`O=c1cc(-c2ccc(-c3cccc(Cl)c3)o2)c2ccccc2o1` [COUM-22, 4-(5-(3-chlorobenzene)furan-2-yl)-coumarin] and `COc1ccc2c(-c3ccc(-c4cccc(Cl)c4)s3)cc(=O)oc2c1` [COUM-35, 4-(5-(3-chlorobenzene)thiophene-2-yl)-7-methoxyl-coumarin] cannot be ordered by IC50: greater than 5 µM for the first, greater than 5 µM for the second.

`O=c1cc(-c2ccc(-c3ccc4c(c3)OCO4)s2)c2ccccc2o1` [COUM-31, 4-(5-(3,4-(methylenedioxy)benzene)thiophene-2-yl)-coumarin] and `COc1ccc2c(-c3ccc(-c4ccc5c(c4)OCO5)o3)cc(=O)oc2c1` [COUM-25, 4-(5-(3,4-(methylenedioxy)benzene)furan-2-yl)-7-methoxyl-coumarin] cannot be ordered by IC50: greater than 5 µM for the first, greater than 5 µM for the second.

test system: prostate cancer PC-3; assay: as above; type: cell-based, human; details: Homo sapiens, 72 hours, read-out: IC50 of compounds for tumor cells, Activity, PC-3
Description: as §1, §2, §3, §4, §5

First: COc1ccc(N(C)c2cc(=O)oc3ccccc23)cc1 [COUM-43, 4-(N-methyl-N-(4-methoxybenzene)-amino) coumarin]
Second: O=c1cc(-c2ccc(-c3ccccc3)o2)c2ccccc2o1 [COUM-19, 4-(5-phenylfuran-2-yl)-coumarin]
The IC50 of the first is lower: 0.01 to 0.1 µM for the first, greater than 5 µM for the second. The first is the more potent here.

`O=c1cc(-c2ccc(-c3cccc(Cl)c3)o2)c2ccccc2o1` [COUM-22, 4-(5-(3-chlorobenzene)furan-2-yl)-coumarin] and `COc1ccc2c(-c3ccc(-c4cccc(Cl)c4)s3)cc(=O)oc2c1` [COUM-35, 4-(5-(3-chlorobenzene)thiophene-2-yl)-7-methoxyl-coumarin] cannot be ordered by IC50: greater than 5 µM for the first, greater than 5 µM for the second.

`O=c1cc(-c2ccc(-c3ccc4c(c3)OCO4)s2)c2ccccc2o1` [COUM-31, 4-(5-(3,4-(methylenedioxy)benzene)thiophene-2-yl)-coumarin] and `COc1ccc2c(-c3ccc(-c4ccc5c(c4)OCO5)o3)cc(=O)oc2c1` [COUM-25, 4-(5-(3,4-(methylenedioxy)benzene)furan-2-yl)-7-methoxyl-coumarin] cannot be ordered by IC50: greater than 5 µM for the first, greater than 5 µM for the second.

test system: melanoma A375; assay: as above; type: cell-based, human; details: Homo sapiens, A-375, 72 hours, read-out: IC50 of compounds for tumor cells, Activity, A375
Description: as §1, §2, §3, §4, §5

First: COc1ccc(N(C)c2cc(=O)oc3ccccc23)cc1 [COUM-43, 4-(N-methyl-N-(4-methoxybenzene)-amino) coumarin]
Second: O=c1cc(-c2ccc(-c3ccccc3)o2)c2ccccc2o1 [COUM-19, 4-(5-phenylfuran-2-yl)-coumarin]
The IC50 of the first is lower: 0.01 to 0.1 µM for the first, greater than 5 µM for the second.

`O=c1cc(-c2ccc(-c3cccc(Cl)c3)o2)c2ccccc2o1` [COUM-22, 4-(5-(3-chlorobenzene)furan-2-yl)-coumarin] and `COc1ccc2c(-c3ccc(-c4cccc(Cl)c4)s3)cc(=O)oc2c1` [COUM-35, 4-(5-(3-chlorobenzene)thiophene-2-yl)-7-methoxyl-coumarin] cannot be ordered by IC50: greater than 5 µM for the first, greater than 5 µM for the second.

`O=c1cc(-c2ccc(-c3ccc4c(c3)OCO4)s2)c2ccccc2o1` [COUM-31, 4-(5-(3,4-(methylenedioxy)benzene)thiophene-2-yl)-coumarin] and `COc1ccc2c(-c3ccc(-c4ccc5c(c4)OCO5)o3)cc(=O)oc2c1` [COUM-25, 4-(5-(3,4-(methylenedioxy)benzene)furan-2-yl)-7-methoxyl-coumarin] cannot be ordered by IC50: greater than 5 µM for the first, greater than 5 µM for the second.

test system: hepatocellular carcinoma cell HEPG2; assay: as above; type: cell-based, human; details: Homo sapiens, HepG2, 72 hours, read-out: IC50 of compounds for tumor cells, Activity, HEPG2
Description: as §1, §2, §3, §4, §5

First: COc1ccc(N(C)c2cc(=O)oc3ccccc23)cc1 [COUM-43, 4-(N-methyl-N-(4-methoxybenzene)-amino) coumarin]
Second: O=c1cc(-c2ccc(-c3ccccc3)o2)c2ccccc2o1 [COUM-19, 4-(5-phenylfuran-2-yl)-coumarin]
The IC50 of the first is lower: 0.01 to 0.1 µM for the first, greater than 5 µM for the second.

`O=c1cc(-c2ccc(-c3cccc(Cl)c3)o2)c2ccccc2o1` [COUM-22, 4-(5-(3-chlorobenzene)furan-2-yl)-coumarin] and `COc1ccc2c(-c3ccc(-c4cccc(Cl)c4)s3)cc(=O)oc2c1` [COUM-35, 4-(5-(3-chlorobenzene)thiophene-2-yl)-7-methoxyl-coumarin] cannot be ordered by IC50: greater than 5 µM for the first, greater than 5 µM for the second.

`O=c1cc(-c2ccc(-c3ccc4c(c3)OCO4)s2)c2ccccc2o1` [COUM-31, 4-(5-(3,4-(methylenedioxy)benzene)thiophene-2-yl)-coumarin] and `COc1ccc2c(-c3ccc(-c4ccc5c(c4)OCO5)o3)cc(=O)oc2c1` [COUM-25, 4-(5-(3,4-(methylenedioxy)benzene)furan-2-yl)-7-methoxyl-coumarin] cannot be ordered by IC50: greater than 5 µM for the first, greater than 5 µM for the second.

test system: breast cancer cell MCF-7; assay: as above; type: cell-based; details: Homo sapiens, MCF7, 72 hours, read-out: IC50 of compounds for tumor cells, Activity, MCF-7
Description: as §1, §2, §3, §4, §5

Compared with `COc1ccc(N(C)c2cc(=O)oc3ccccc23)cc1` [COUM-43, 4-(N-methyl-N-(4-methoxybenzene)-amino) coumarin], `O=c1cc(-c2ccc(-c3ccccc3)o2)c2ccccc2o1` [COUM-19, 4-(5-phenylfuran-2-yl)-coumarin] is higher in IC50: 0.01 to 0.1 µM for the first, greater than 5 µM for the second.

`O=c1cc(-c2ccc(-c3cccc(Cl)c3)o2)c2ccccc2o1` [COUM-22, 4-(5-(3-chlorobenzene)furan-2-yl)-coumarin] and `COc1ccc2c(-c3ccc(-c4cccc(Cl)c4)s3)cc(=O)oc2c1` [COUM-35, 4-(5-(3-chlorobenzene)thiophene-2-yl)-7-methoxyl-coumarin] cannot be ordered by IC50: greater than 5 µM for the first, greater than 5 µM for the second.

`O=c1cc(-c2ccc(-c3ccc4c(c3)OCO4)s2)c2ccccc2o1` [COUM-31, 4-(5-(3,4-(methylenedioxy)benzene)thiophene-2-yl)-coumarin] and `COc1ccc2c(-c3ccc(-c4ccc5c(c4)OCO5)o3)cc(=O)oc2c1` [COUM-25, 4-(5-(3,4-(methylenedioxy)benzene)furan-2-yl)-7-methoxyl-coumarin] cannot be ordered by IC50: greater than 5 µM for the first, greater than 5 µM for the second.

Reference: patent US10544134B2, “4-substituted coumarin derivatives and preparation methods and uses thereof” (SI CHUAN UNIVERSITY, priority 2015, dated 2020)
